Measured values as given in patent US12599676B2, “Cytotoxic imidazo[1,2-A]pyridine compounds and their use in therapy” (MyricX Pharma Limited, priority 2022, dated 2026).

system: SU-DHL-10 cell line (human B cell lymphoma); assay: Cell cytotoxicity in SU-DHL-10 cell line (CellTiter-Glo); format: cell-based; conditions: 72 h treatment, CTG
Description: Certain Example compounds of the invention and Comparator Compound 1 were tested in the SU-DHL-10 cell line (human B cell lymphoma). Compounds which show efficacy in this assay are expected to be useful as agents for treating or preventing hyperproliferative disorders such as cancer.
Cells were seeded in 96-well microplates and treated with compounds or cisplatin (as a positive control) at 9 increasing concentrations in technical triplicate. […] On day 1, 90 μL of various cell suspensions with the number of cells ranging from 5000-8000 cells/well were seeded into wells of a 96-well plate (Corning). The number of cells to be seeded was previously determined. • 2. All 96-wells plates with cells were placed in an incubator overnight at 37° C. with 5% CO2. • 3. On day 2, cells were observed under a microscope ensuring the cells treated with vehicle control were in good condition. • 4. A dilution series of the test compounds and cisplatin were prepared at 10× the final concentrations required. 10 μL/well of 10× compound solution was added to the corresponding plates. The final volume was 100 μL/well for all the plates. Final DMSO concentration was 0.1%. • 5. On day 5 (after 72 hours of incubation), 50 μL of CTG reagent was added to each well. • 6. Contents were mixed for 5 minutes on an orbital shaker to facilitate cell lysis. • 7. The plate was allowed to incubate at room temperature for 10 minutes to stabilize luminescent signals.
Luminescence was recorded using an EnVision Multi Label Reader. Data analysis was performed using GraphPad Prism 8.0.
To calculate IC50, a concentration-response curve was generated using a nonlinear regression model with a sigmoidal concentration response. The formula for calculating the % of viable cells was shown below, and the IC50s are automatically generated by GraphPad Prism 8.0.
(LumTest article=luminescence in test article treated well; LumNone treated=luminescence in vehicle treated well; LumMedium control=luminescence in a well containing only medium and no cells; LumNone treated-LumMedium control was set as 100%)

Structure (SMILES) | IC50 [nM]
CNCc1cnc2ccc(-c3ccc(F)c(F)c3OCCc3c(C(O)C(C)(C)C)nn(C)c3C)cn12 (single isomer, unassigned) [Example 13, 1-(4-(2-(2,3-difluoro-6-(3-((methylamino)methyl)imidazo[1,2-a]pyridin-6-yl)phenoxy)ethyl)-1,5-dimethyl-1H-pyrazol-3-yl)-2,2-dimethylpropan-1-ol] | 0.7

same assay, conditions: Homo sapiens, SU-DHL10, 72 h, 72 h treatment, CTG

Structure (SMILES) | IC50 [nM]
CNCc1cnc2ccc(-c3ccc(F)cc3OCCc3c(C(O)C(C)(C)C)nn(C)c3C)cn12 (stereo not shown) [Example 8, 1-(4-(2-(5-fluoro-2-(3-((methylamino)methyl)imidazo[1,2-a]pyridin-6-yl)phenoxy)ethyl)-1,5-dimethyl-1H-pyrazol-3-yl)-2,2-dimethylpropan-1-ol] | 0.7
Cc1c(CCOc2c(-c3ccc4ncc(CN)n4c3)ccc(F)c2F)c(C(O)C(C)(C)C)nn1C (stereo not shown) [Example 17, 1-(4-(2-(6-(3-(aminomethyl)imidazo[1,2-a]pyridin-6-yl)-2,3-difluorophenoxy)ethyl)-1,5-dimethyl-1H-pyrazol-3-yl)-2,2-dimethylpropan-1-ol] | 1
Cc1c(CCOc2c(-c3ccc4ncc(CN)n4c3)ccc(F)c2F)c(C(C)(C)O)nn1C [Example 20, 2-[4-(2-{6-[3-(aminomethyl)imidazo[1,2-a]pyridin-6-yl]-2,3-difluorophenoxy}ethyl)-1,5-dimethyl-1H-pyrazol-3-yl]propan-2-ol] | 12
CCNCc1cnc2ccc(-c3ccc(F)cc3OCCc3c(C(C)(C)O)nn(C)c3C)cn12 [Example 22, 2-{4-[2-(2-{3-[(ethylamino)methyl]imidazo[1,2-a]pyridin-6-yl}-5-fluorophenoxy)ethyl]-1,5-dimethyl-1H-pyrazol-3-yl}propan-2-ol] | 9
Cc1c(CCOc2cc(F)ccc2-c2ccc3ncc(CN(C)C)n3c2)c(C(O)C(C)C)nn1C (stereo not shown) [Example 24, 1-(4-(2-(2-(3-((dimethylamino)methyl)imidazo[1,2-a]pyridin-6-yl)-5-fluorophenoxy)ethyl)-1,5-dimethyl-1H-pyrazol-3-yl)-2-methylpropan-1-ol] | 0.7
CNCc1cnc2ccc(-c3ccc(F)c(F)c3OCCc3c(C(O)C(C)C)nn(C)c3C)cn12 (stereo not shown) [Example 25, 1-{4-[2-(2,3-difluoro-6-{3-[(methylamino)methyl]imidazo[1,2-a]pyridin-6-yl}phenoxy)ethyl]-1,5-dimethyl-1H-pyrazol-3-yl}-2-methylpropan-1-ol] | 1
